Experimental data published in patent US8314143B2, “Synthetic flavonoids and pharmaceutical compositions and therapeutic methods of treatment of HIV infection and other pathologies” (Florida A&M University, priority 2006, dated 2012).
Where “and” joins values, the source holds several entries; their conditions need not be identical. Identical values can stand only once. Entries after “also recorded” stand apart in the source; their conditions may differ.

Assays:
Format in all cases: cell-based
H-9 cells = experiment: Cytoxicity on H-9 cells (drug inhibition, cell count); settings: for H-9 Mean (drug inhibition): Table 4 summary; for % Inhibition Mean / Cells (×10^4) Mean / % Inhibition / Cells (×10^4): Exp. Dec. 05 to Dec. 09, 2005; for % Inhibition / Cells (×10^4): single replicates
Excerpt: (§1) The purified and identified analogs were subjected to in vitro biological testing. […] These three congeners were further evaluated in H9 and PC3 cells. AZT was employed as a positive control in all of these experiments.

PC-3 cells = experiment: Cytoxicity on PC-3 cells (drug inhibition, cell count); settings: for Drug Inhibition on PC-3 cells: Table 7; for % Inhibition Mean / Cells (×10^4) Mean / % Inhibition / Cells (×10^4): Exp. Nov. 11 to Nov. 17, 2005; for % Inhibition / Cells (×10^4): single replicates
Excerpt: The purified and identified analogs were subjected to in vitro biological testing.

MCF-7 cells = experiment: Cytoxicity on MCF-7 cells (drug inhibition, cell count); set-up: Drug Inhibition on MCF-7 Cells / MCF-7 Mean (drug inhibition) / Drug inhibition on MCF-7 Cells Mean: unit not given here; settings: MCF-7 cells; for Drug Inhibition on MCF-7 Cells: Table 8 summary; for % Inhibition Mean / Cells (×10^4) Mean / % Inhibition / Cells (×10^4): Exp. Nov. 14 to Nov. 18, 2005; for % Inhibition / Cells (×10^4): single replicates
Excerpt: as §1

COc1ccc(C=CC(=O)c2cc(Cl)cc(Cl)c2O)cc1OC [CHCl 2M]
H-9 Mean (drug inhibition) (H-9 cells; 1 μg/ml): 15.92
% Inhibition Mean (H-9 cells; 1 μg/ml): 15.92%
Cells (×10^4) Mean (H-9 cells; 1 μg/ml): 42.25 ×10^4
% Inhibition (H-9 cells; 1 μg/ml): 16.42% and 15.92% and 15.42%
Cells (×10^4) (H-9 cells; 1 μg/ml): 42.0 ×10^4 and 42.3 ×10^4 and 42.6 ×10^4
H-9 Mean (drug inhibition) (H-9 cells; 5 μg/ml): 52.24
% Inhibition Mean (H-9 cells; 5 μg/ml): 52.24%
Cells (×10^4) Mean (H-9 cells; 5 μg/ml): 24.00 ×10^4
% Inhibition (H-9 cells; 5 μg/ml): 52.24% and 52.74% and 51.74%
Cells (×10^4) (H-9 cells; 5 μg/ml): 24.0 ×10^4 and 23.8 ×10^4 and 24.3 ×10^4
H-9 Mean (drug inhibition) (H-9 cells; 10 μg/ml): 74.3
% Inhibition Mean (H-9 cells; 10 μg/ml): 74.30%
Cells (×10^4) Mean (H-9 cells; 10 μg/ml): 12.92 ×10^4
% Inhibition (H-9 cells; 10 μg/ml): 74.13% and 77.11% and 71.64%
Cells (×10^4) (H-9 cells; 10 μg/ml): 13.0 ×10^4 and 11.5 ×10^4 and 14.3 ×10^4
H-9 Mean (drug inhibition) (H-9 cells; 50 μg/ml): 91.04
% Inhibition Mean (H-9 cells; 50 μg/ml): 91.04%
Cells (×10^4) Mean (H-9 cells; 50 μg/ml): 4.50 ×10^4
% Inhibition (H-9 cells; 50 μg/ml): 92.04% and 91.04% and 90.05%
Cells (×10^4) (H-9 cells; 50 μg/ml): 4.0 ×10^4 and 4.5 ×10^4 and 5.0 ×10^4
inhibitory activity compared to AZT (H-9 cells; same conditions as AZT): much superior inhibitory activities; also recorded: as good or somewhat better
Drug Inhibition on PC-3 cells (PC-3 cells; 1 μg/ml): 42.4
% Inhibition Mean (PC-3 cells; 1 μg/ml): 25.09%
Cells (×10^4) Mean (PC-3 cells; 1 μg/ml): 73.42 ×10^4
% Inhibition (PC-3 cells; 1 μg/ml): 24.23% and 24.49% and 26.53%
Cells (×10^4) (PC-3 cells; 1 μg/ml): 74.3 ×10^4 and 74.0 ×10^4 and 72.0 ×10^4
Drug Inhibition on PC-3 cells (PC-3 cells; 5 μg/ml): 73.76
% Inhibition Mean (PC-3 cells; 5 μg/ml): 28.57%
Cells (×10^4) Mean (PC-3 cells; 5 μg/ml): 70.00 ×10^4
% Inhibition (PC-3 cells; 5 μg/ml): 29.59% and 29.08% and 27.04%
Cells (×10^4) (PC-3 cells; 5 μg/ml): 69.0 ×10^4 and 69.5 ×10^4 and 71.5 ×10^4
Drug Inhibition on PC-3 cells (PC-3 cells; 10 μg/ml): 87.02
% Inhibition Mean (PC-3 cells; 10 μg/ml): 29.00%
Cells (×10^4) Mean (PC-3 cells; 10 μg/ml): 69.58 ×10^4
% Inhibition (PC-3 cells; 10 μg/ml): 30.61% and 28.57% and 27.81%
Drug Inhibition on PC-3 cells (PC-3 cells; 50 μg/ml): 96.96
% Inhibition Mean (PC-3 cells; 50 μg/ml): 36.65%
Cells (×10^4) Mean (PC-3 cells; 50 μg/ml): 62.08 ×10^4
% Inhibition (PC-3 cells; 50 μg/ml): 31.88% and 33.16% and 45.41%
Cells (×10^4) (PC-3 cells; 50 μg/ml): 67.3 ×10^4 and 65.5 ×10^4 and 53.5 ×10^4
inhibitory activity compared to AZT (PC-3 cells; same conditions as AZT): much superior inhibitory activities; also recorded: as good or somewhat better
response to MCF-7 cells in the different drug concentrations (MCF-7 cells): good activities
Drug Inhibition on MCF-7 Cells (MCF-7 cells; 1 μg/ml): 14.55
% Inhibition Mean (MCF-7 cells; 1 μg/ml): 14.55%
Cells (×10^4) Mean (MCF-7 cells; 1 μg/ml): 49.42 ×10^4
% Inhibition (MCF-7 cells; 1 μg/ml): 13.98% and 16.14% and 13.54%
Cells (×10^4) (MCF-7 cells; 1 μg/ml): 49.8 ×10^4 and 48.5 ×10^4 and 50.0 ×10^4
Drug Inhibition on MCF-7 Cells (MCF-7 cells; 5 μg/ml): 44.09
% Inhibition Mean (MCF-7 cells; 5 μg/ml): 44.09%
Cells (×10^4) Mean (MCF-7 cells; 5 μg/ml): 32.33 ×10^4
% Inhibition (MCF-7 cells; 5 μg/ml): 44.67% and 45.53% and 42.07%
Cells (×10^4) (MCF-7 cells; 5 μg/ml): 32.0 ×10^4 and 31.5 ×10^4 and 33.5 ×10^4
Drug Inhibition on MCF-7 Cells (MCF-7 cells; 10 μg/ml): 81.99
% Inhibition Mean (MCF-7 cells; 10 μg/ml): 81.99%
Cells (×10^4) Mean (MCF-7 cells; 10 μg/ml): 10.42 ×10^4
% Inhibition (MCF-7 cells; 10 μg/ml): 82.71% and 81.41% and 81.84%
Cells (×10^4) (MCF-7 cells; 10 μg/ml): 10.0 ×10^4 and 10.8 ×10^4 and 10.5 ×10^4
Drug Inhibition on MCF-7 Cells (MCF-7 cells; 50 μg/ml): 98.70
% Inhibition Mean (MCF-7 cells; 50 μg/ml): 98.70%
Cells (×10^4) Mean (MCF-7 cells; 50 μg/ml): 0.75 ×10^4
% Inhibition (MCF-7 cells; 50 μg/ml): 98.27% and 99.14% and 98.70%
Cells (×10^4) (MCF-7 cells; 50 μg/ml): 1.0 ×10^4 and 0.5 ×10^4 and 0.8 ×10^4
inhibitory activity compared to AZT (MCF-7 cells; same conditions as AZT): much superior inhibitory activities; also recorded: as good or somewhat better

COc1ccc(C=CC(=O)c2cc(C)cc([N+](=O)[O-])c2O)cc1OC [CHNM 2M]
H-9 Mean (drug inhibition) (H-9 cells; 1 μg/ml): −15.75
% Inhibition Mean (H-9 cells; 1 μg/ml): −15.75%
Cells (×10^4) Mean (H-9 cells; 1 μg/ml): 58.17 ×10^4
% Inhibition (H-9 cells; 1 μg/ml): −13.93% and −19.90% and −13.43%
Cells (×10^4) (H-9 cells; 1 μg/ml): 57.3 ×10^4 and 60.3 ×10^4 and 57.0 ×10^4
H-9 Mean (drug inhibition) (H-9 cells; 5 μg/ml): −16.58
% Inhibition Mean (H-9 cells; 5 μg/ml): −16.58%
Cells (×10^4) Mean (H-9 cells; 5 μg/ml): 58.58 ×10^4
% Inhibition (H-9 cells; 5 μg/ml): −22.39% and −10.45% and −16.92%
Cells (×10^4) (H-9 cells; 5 μg/ml): 61.5 ×10^4 and 55.5 ×10^4 and 58.8 ×10^4
H-9 Mean (drug inhibition) (H-9 cells; 10 μg/ml): −1
% Inhibition Mean (H-9 cells; 10 μg/ml): −1.00%
Cells (×10^4) Mean (H-9 cells; 10 μg/ml): 50.75 ×10^4
% Inhibition (H-9 cells; 10 μg/ml): −0.50% and −3.98% and 1.49%
Cells (×10^4) (H-9 cells; 10 μg/ml): 50.5 ×10^4 and 52.3 ×10^4 and 49.5 ×10^4
H-9 Mean (drug inhibition) (H-9 cells; 50 μg/ml): −11.44
% Inhibition Mean (H-9 cells; 50 μg/ml): −11.44%
Cells (×10^4) Mean (H-9 cells; 50 μg/ml): 56.00 ×10^4
% Inhibition (H-9 cells; 50 μg/ml): −12.94% and −8.96% and −12.44%
Cells (×10^4) (H-9 cells; 50 μg/ml): 56.8 ×10^4 and 54.8 ×10^4 and 56.5 ×10^4
Drug Inhibition on PC-3 cells (PC-3 cells; 1 μg/ml): 27.9
% Inhibition Mean (PC-3 cells; 1 μg/ml): 9.10%
Cells (×10^4) Mean (PC-3 cells; 1 μg/ml): 89.08 ×10^4
% Inhibition (PC-3 cells; 1 μg/ml): 9.69% and 17.09% and 0.51%
Cells (×10^4) (PC-3 cells; 1 μg/ml): 88.5 ×10^4 and 81.3 ×10^4 and 97.5 ×10^4
Drug Inhibition on PC-3 cells (PC-3 cells; 5 μg/ml): 39.36
% Inhibition Mean (PC-3 cells; 5 μg/ml): 36.05%
Cells (×10^4) Mean (PC-3 cells; 5 μg/ml): 62.67 ×10^4
% Inhibition (PC-3 cells; 5 μg/ml): 39.29% and 36.99% and 31.89%
Cells (×10^4) (PC-3 cells; 5 μg/ml): 59.5 ×10^4 and 61.8 ×10^4 and 66.8 ×10^4
Drug Inhibition on PC-3 cells (PC-3 cells; 10 μg/ml): 45.03
% Inhibition Mean (PC-3 cells; 10 μg/ml): 35.80%
Cells (×10^4) Mean (PC-3 cells; 10 μg/ml): 62.92 ×10^4
% Inhibition (PC-3 cells; 10 μg/ml): 36.22% and 38.52% and 32.65%
Drug Inhibition on PC-3 cells (PC-3 cells; 50 μg/ml): 59.67
% Inhibition Mean (PC-3 cells; 50 μg/ml): 48.81%
Cells (×10^4) Mean (PC-3 cells; 50 μg/ml): 50.17 ×10^4
% Inhibition (PC-3 cells; 50 μg/ml): 49.23% and 46.43% and 50.77%
Drug Inhibition on MCF-7 Cells (MCF-7 cells; 1 μg/ml): 6.77
% Inhibition Mean (MCF-7 cells; 1 μg/ml): 6.77%
Cells (×10^4) Mean (MCF-7 cells; 1 μg/ml): 53.92 ×10^4
% Inhibition (MCF-7 cells; 1 μg/ml): 8.36% and 4.47% and 7.49%
Cells (×10^4) (MCF-7 cells; 1 μg/ml): 53.0 ×10^4 and 55.3 ×10^4 and 53.5 ×10^4
Drug Inhibition on MCF-7 Cells (MCF-7 cells; 5 μg/ml): 20.17
% Inhibition Mean (MCF-7 cells; 5 μg/ml): 20.17%
Cells (×10^4) Mean (MCF-7 cells; 5 μg/ml): 46.17 ×10^4
% Inhibition (MCF-7 cells; 5 μg/ml): 21.33% and 22.19% and 17.00%
Cells (×10^4) (MCF-7 cells; 5 μg/ml): 45.5 ×10^4 and 45.0 ×10^4 and 48.0 ×10^4
Drug Inhibition on MCF-7 Cells (MCF-7 cells; 10 μg/ml): 31.27
% Inhibition Mean (MCF-7 cells; 10 μg/ml): 31.27%
Cells (×10^4) Mean (MCF-7 cells; 10 μg/ml): 39.75 ×10^4
% Inhibition (MCF-7 cells; 10 μg/ml): 29.97% and 32.56% and 31.27%
Cells (×10^4) (MCF-7 cells; 10 μg/ml): 40.5 ×10^4 and 39.0 ×10^4 and 39.8 ×10^4
Drug Inhibition on MCF-7 Cells (MCF-7 cells; 50 μg/ml): 42.07
% Inhibition Mean (MCF-7 cells; 50 μg/ml): 42.07%
Cells (×10^4) Mean (MCF-7 cells; 50 μg/ml): 33.50 ×10^4
% Inhibition (MCF-7 cells; 50 μg/ml): 43.80% and 40.35% and 42.07%
Cells (×10^4) (MCF-7 cells; 50 μg/ml): 32.5 ×10^4 and 34.5 ×10^4 and 33.5 ×10^4
